“And” between values parts separate entries of the source, which are not always exact repeats. Equal values may be shown once. Where a name gives a salt, the structure may show the parent alone. Read-outs that look alike come from different tables or passages of the source.
Key:
[1] = tested on: writhing in mice induced by the intraperitoneal injection of acetic acid; assay: mouse-writhing test (inhibition of writhing induced by intraperitoneal acetic acid); format: in vivo; settings: for % Inhibition: reading at 0.5 hours; for ED50: Mus musculus, read-out: Median inhibiting dose (I.D.50)
Text: In the Table, column 1 gives the name of the compund; column 2, the dosage in mg./kg. of mouse weight; column 3, the route of administration of the drug ("S.C." is subcutaneous and "or" is oral); and column 4, the percent inhibition found at the particular dose level. […] Median inhibiting doses (I.D.50) are also included in the Table.

rat tail jerk = rat tail jerk assay (increase in reaction time over control); format: in vivo
Text: The compounds of this invention are also active in the rat tail jerk assay, another standard pharmacologic test for analgesic activity of the opiate-type. Such activity is manifested as an increase in the reaction time of the animal in removing (jerking) its tail from a nearby heat stimulus (a resistance wire) after drug administration compared to control time (no drug administered). Table 2 which follows gives the increased reaction times over control times produced by the compounds of this invention when administered subcutaneously. In Tables 2 and 3, column 1 gives the name of the compound; column 2, the dose; column 3, time of observation after administration of the drug; column 4, the increase in reaction time above control in seconds; and column 5, the level of significance of the results ("p" value). […] All drugs were administered as aqueous solutions. More than one value for a given dose level indicates multiple determinations. The results are not averaged.

morphine = assay: modified rat tail jerk assay, antagonism of morphine; format: in vivo, rats; settings: for minimal effective dose: Rattus norvegicus, morphine 5 mg./kg. subcutaneous
Method: The ability of the compounds of this invention to antagonize the action of morphine, an opiate, is shown by the following modification of the aforementioned rat tail jerk assay: The standard assay procedure is used with the exception that a 7 amps. current is used instead of a 6 amps. current in the hot wire to decrease the measurable agonist effects of the antagonist. The drugs under test are then administered to groups of rats at different dose levels at different times prior to test, with a 5 mg./kg. dose of morphine invariably being administered 10 minutes prior to test. Positive evidence of antagonism is a decreased reaction time over that to be expected from the morphine. […] Among the compounds of this invention, those in which R in Structure I is cyclopropylmethyl are the preferred antagonists, showing activity in the above test procedure. […] In a series of determinations, it was ascertained that the minimum subcutaneous dose necessary to reduce the analgesic effects of a 5 mg./kg. subcutaneous dose of morphine was in the range 2.5-5.0 mg./kg. and the minimum oral dose, 5-10 mg./kg.

[2] = tested on: morphine induced Straub tail; assay: blocking of morphine induced Straub tail in mice; format: in vivo; settings: 50 mg./kg. subcutaneous, morphine 40 mg./kg. subcutaneous
Method: In this assay, a 40 mg./kg. dose of morphine was administered to mice 15 minutes prior to assay, and the test drug at various intervals before assay. Trans-dl-1 -cyclopropylmethyl-3a-(m-hydroxyphenyl)-1,2,3,3a,4,5,6,7,7a,8-decahydroisoquinoline maleate gave a 100 percent block of the Straubed tail effected by a subcutaneous injection of 40 mg./kg. of morphine when the test drug was given at a dose of 50 mg./kg. subcutaneously 15 minutes prior to assay, and 80 percent when given 30 minutes prior to assay. The l(-) isomer gave 100 percent blocking on the morphine-induced Straub tail at 50 and 20 mg./kg. doses 15 and 30 minutes before assay.

Oc1cccc([C@]23CCCC[C@@H]2CN(CC2CC2)CC3)c1 (stereo in doubt) [Trans-dl-1-cyclopropylmethyl-3a-(m-hydroxyphenyl)-1,2,3,3a,4,5,6,7,7a,8-decahydroisoquinoline maleate]
% Inhibition ([1]; 2 mg./kg. S.C.): 6%
% Inhibition ([1]; 5 mg./kg. S.C.): 66%
% Inhibition ([1]; 10 mg./kg. S.C.): 72%
% Inhibition ([1]; 20 mg./kg. S.C.): 99%
% Inhibition ([1]; 20 mg./kg. oral): 46%
% Inhibition ([1]; 50 mg./kg. oral): 56%
% Inhibition ([1]; 100 mg./kg. S.C.): 100%
% Inhibition ([1]; 100 mg./kg. oral): 92%
ED50 ([1]; sc, S.C.): 2 to 5 mg/kg
ED50 ([1]; oral): 20 to 50 mg/kg
Increase in Reaction Time Over Control (rat tail jerk; oral, 5 mg./kg., 15 min): 0 s
Increase in Reaction Time Over Control (rat tail jerk; oral, 10 mg./kg., 15 min): .90 s
Increase in Reaction Time Over Control (rat tail jerk; oral, 15 mg./kg., 15 min): .95 s
Increase in Reaction Time Over Control (rat tail jerk; oral, 20 mg./kg., 30 min): 1.17 s
Increase in Reaction Time Over Control (rat tail jerk; oral, 20 mg./kg., 45 min): 1.33 s
Increase in Reaction Time Over Control (rat tail jerk; oral, 25 mg./kg., 15 min): 2.10 s
Increase in Reaction Time Over Control (rat tail jerk; oral, 25 mg./kg., 30 min): .30 s
Increase in Reaction Time Over Control (rat tail jerk; oral, 50 mg./kg., 10 min): 2.83 s and 2.73 s and 2.88 s
Increase in Reaction Time Over Control (rat tail jerk; oral, 50 mg./kg., 15 min): 4.25 s and 4.92 s and 5.08 s
Increase in Reaction Time Over Control (rat tail jerk; oral, 50 mg./kg., 60 min): 2.42 s
Increase in Reaction Time Over Control (rat tail jerk; oral, 50 mg./kg., 90 min): 1.38 s
Increase in Reaction Time Over Control (rat tail jerk; oral, 50 mg./kg., 120 min): 1.17 s
Increase in Reaction Time Over Control (rat tail jerk; oral, 100 mg./kg., 5 min): .55 s
Increase in Reaction Time Over Control (rat tail jerk; oral, 100 mg./kg., 10 min): 2.45 s
Increase in Reaction Time Over Control (rat tail jerk; oral, 100 mg./kg., 15 min): 4.85 s and 7.46 s and 4.50 s
Increase in Reaction Time Over Control (rat tail jerk; oral, 100 mg./kg., 15 min, 20 sec. cut off): 5.45 s
Increase in Reaction Time Over Control (rat tail jerk; oral, 100 mg./kg., 30 min): 3.45 s and 4.05 s and 6.79 s and 4.38 s
Increase in Reaction Time Over Control (rat tail jerk; oral, 100 mg./kg., 60 min): 2.05 s
Increase in Reaction Time Over Control (rat tail jerk; oral, 200 mg./kg., 15 min, 20 sec. cut off): 7.25 s and 7.13 s
Increase in Reaction Time Over Control (rat tail jerk; oral, 200 mg./kg., 30 min): 2.75 s and 1.42 s
Increase in Reaction Time Over Control (rat tail jerk; oral, 200 mg./kg., 45 min): 5.79 s
Increase in Reaction Time Over Control (rat tail jerk; oral, 300 mg./kg., 15 min): 7.75 s
Increase in Reaction Time Over Control (rat tail jerk; subcutaneous, 0.5 mg./kg., 15 min): .75 s
Increase in Reaction Time Over Control (rat tail jerk; subcutaneous, 1 mg./kg., 15 min): .50 s
Increase in Reaction Time Over Control (rat tail jerk; subcutaneous, 2 mg./kg., 15 min): 2.21 s
Increase in Reaction Time Over Control (rat tail jerk; subcutaneous, 3 mg./kg., 15 min): 2.04 s
Increase in Reaction Time Over Control (rat tail jerk; subcutaneous, 7 mg./kg., 15 min): 4.25 s
Increase in Reaction Time Over Control (rat tail jerk; subcutaneous, 20 mg./kg., 15 min): 5.17 s and 3.70 s
Increase in Reaction Time Over Control (rat tail jerk; subcutaneous, 25 mg./kg., 15 min): 4.40 s
Increase in Reaction Time Over Control (rat tail jerk; subcutaneous, 30 mg./kg., 15 min, 20 sec. cut off): 4.25 s
Increase in Reaction Time Over Control (rat tail jerk; subcutaneous, 40 mg./kg., 15 min): 3.90 s
Increase in Reaction Time Over Control (rat tail jerk; subcutaneous, 50 mg./kg., 5 min, 15 sec. cut off): 4.85 s
Increase in Reaction Time Over Control (rat tail jerk; subcutaneous, 50 mg./kg., 10 min, 15 sec. cut off): 4.95 s
Increase in Reaction Time Over Control (rat tail jerk; subcutaneous, 50 mg./kg., 10 min, 20 sec. cut off): 4.85 s
Increase in Reaction Time Over Control (rat tail jerk; subcutaneous, 50 mg./kg., 15 min): 4.0 s and 5.98 s
Increase in Reaction Time Over Control (rat tail jerk; subcutaneous, 50 mg./kg., 15 min, 15 sec. cut off): 6.50 s
Increase in Reaction Time Over Control (rat tail jerk; subcutaneous, 50 mg./kg., 15 min, 20 sec. cut off): 6.08 s
Increase in Reaction Time Over Control (rat tail jerk; subcutaneous, 50 mg./kg., 30 min): 5.75 s
Increase in Reaction Time Over Control (rat tail jerk; subcutaneous, 50 mg./kg., 30 min, 15 sec. cut off): 5.10 s
Increase in Reaction Time Over Control (rat tail jerk; subcutaneous, 50 mg./kg., 45 min): 3.00 s
Increase in Reaction Time Over Control (rat tail jerk; subcutaneous, 50 mg./kg., 90 min): 1.85 s
Increase in Reaction Time Over Control (rat tail jerk; subcutaneous, 50 mg./kg., 120 min): 2.45 s
Increase in Reaction Time Over Control (rat tail jerk; subcutaneous, 50 mg./kg., 180 min): 1.80 s
Increase in Reaction Time Over Control (rat tail jerk; subcutaneous, 60 mg./kg., 15 min, 20 sec. cut off): 4.40 s
Increase in Reaction Time Over Control (rat tail jerk; subcutaneous, 100 mg./kg., 15 min): 4.15 s
Increase in Reaction Time Over Control (rat tail jerk; subcutaneous, 200 mg./kg., 15 min): 5.65 s
blocking of the analgesic effect of morphine (morphine; 50 mg./kg. subcutaneous, 30 and 60 minutes prior, morphine 5 mg./kg.): very effectively blocked the analgesic effect of 5 mg./kg. of morphine
minimal effective dose (morphine; sc, subcutaneous, read-out: minimum subcutaneous dose necessary to reduce the analgesic effects of morphine): 2.5 to 5 mg/kg
minimal effective dose (morphine; oral, read-out: minimum oral dose necessary to reduce the analgesic effects of morphine): 5 to 10 mg/kg
antagonism of morphine (morphine; dose not stated): antagonizes the effects of morphine
block of the Straubed tail ([2]; 15 minutes prior): 100%
block of the Straubed tail ([2]; 30 minutes prior): 80%

From US4001248A, “N-cycloalkylmethyl decahydroisoquinolines” (Eli Lilly and Company, priority 1974, dated 1977)
